{
  "source": "patent US9457033B2",
  "about": "“Steroid alkaloids and uses thereof as antimicrobial agents against electron transport-deficient microbes and as potentiators for antimicrobial agents against pathogenic bacteria” (priority 2011, dated 2016)",
  "key": {"[1]": {"tested_on": "S. aureus Mu50", "experiment": "MIC, microdilution in CAMHB 24 h", "format": "cell-based, Staphylococcus aureus", "settings": "for MIC: Staphylococcus aureus"}, "[2]": {"tested_on": "S. aureus N315", "experiment": "microbe, parasite or virus in culture", "format": "cell-based, Staphylococcus aureus", "settings": "for Fold (−TO/+TO): N315, 8 μg/ml of tomatidine; for MIC: Staphylococcus aureus"}, "[3]": {"tested_on": "S. aureus CF9A-L", "experiment": "MIC, microdilution in CAMHB 24 h", "format": "cell-based, Staphylococcus aureus", "settings": "CF9A-L; for MIC: Staphylococcus aureus"}, "[4]": {"tested_on": "S. aureus MRSA COL", "experiment": "MIC, microdilution in CAMHB 24 h", "format": "cell-based, Staphylococcus aureus", "settings": "MRSA COL; for MIC: Staphylococcus aureus"}, "[5]": {"tested_on": "S. aureus Sa220c", "experiment": "MIC, microdilution in CAMHB 24 h", "format": "cell-based, Staphylococcus aureus", "settings": "Sa220c; for MIC: Staphylococcus aureus"}, "[6]": {"tested_on": "S. haemolyticus sh032", "experiment": "MIC, microdilution, with or without tomatidine", "settings": "for MIC: Staphylococcus haemolyticus"}, "[7]": {"tested_on": "S. hominis ssp008c", "experiment": "MIC, microdilution, with or without tomatidine", "settings": "for MIC: Staphylococcus hominis, SSP008C"}, "[8]": {"tested_on": "S. epidermidis ATCC 35984", "experiment": "MIC, microdilution, with or without tomatidine", "settings": "for MIC: Staphylococcus epidermidis"}, "[9]": {"tested_on": "S. haemolyticus sh022", "experiment": "MIC, microdilution, with or without tomatidine", "settings": "for MIC: Staphylococcus haemolyticus"}, "[10]": {"tested_on": "all tested S. aureus strains", "experiment": "Average potentiation of aminoglycoside MIC by tomatidine (FIGS. 6, 7)", "format": "cell-based, Staphylococcus aureus", "settings": "tomatidine at 8 μg/ml"}, "[11]": {"tested_on": "S. hominis sho23", "experiment": "MIC, microdilution, with or without tomatidine", "settings": "for MIC: Staphylococcus hominis"}, "[12]": {"tested_on": "S. aureus SCV strain CF6A-S", "experiment": "microbe, parasite or virus in culture", "format": "cell-based", "settings": "Staphylococcus aureus"}, "[13]": {"tested_on": "S. epidermidis ATCC 12228", "experiment": "MIC, microdilution, with or without tomatidine", "settings": "for MIC: Staphylococcus epidermidis"}, "[14]": {"settings": "Mu50, aac(6′)-aph(2″), ant(4′)-Ia, 8 μg/ml of tomatidine, read-out: MIC +TO"}, "[15]": {"settings": "Mu50, aac(6′)-aph(2″), ant(4′)-Ia, absence of tomatidine, read-out: MIC −TO"}, "[16]": {"settings": "Mu50, Human (SSTI), MRSA, VISA, read-out: MIC"}, "[17]": {"settings": "CF9AL, ant(4′)-Ia, 8 μg/ml of tomatidine, read-out: MIC +TO"}, "[18]": {"settings": "CF9AL, ant(4′)-Ia, absence of tomatidine, read-out: MIC −TO"}, "[19]": {"settings": "Human (CF lungs), MRSA, read-out: MIC"}, "[20]": {"settings": "8 μg/ml of tomatidine, read-out: MIC +TO"}, "[21]": {"settings": "absence of tomatidine, read-out: MIC −TO"}, "[22]": {"settings": "Human (SSTI), MRSA, read-out: MIC"}},
  "note": "Like-named read-outs stand apart in the source and are kept apart here.",
  "data": [
    {"smiles": "NC[C@H]1O[C@H](O[C@H]2[C@H](O)[C@@H](O[C@H]3O[C@H](CO)[C@@H](O)[C@H](N)[C@H]3O)[C@H](N)C[C@@H]2N)[C@H](O)[C@@H](O)[C@@H]1O", "note": "[Kanamycin, kanamycin]", "values": [
      {"measurement": "Fold (−TO/+TO)", "setting": "[1]; Mu50, 8 μg/ml of tomatidine", "result": ">2-4 fold"},
      {"measurement": "MIC", "setting": "[1]; [14]", "result": "256 to 512", "unit": "µg/mL"},
      {"measurement": "MIC", "setting": "[1]; [15]", "result": "> 1020", "unit": "µg/mL"},
      {"measurement": "MIC", "setting": "[1]; [16]", "result": "> 1020", "unit": "µg/mL"},
      {"measurement": "Fold (−TO/+TO)", "setting": "[2]", "result": 4, "unit": "fold"},
      {"measurement": "MIC", "setting": "[2]; N315, read-out: MIC +TO", "result": 64, "unit": "µg/mL"},
      {"measurement": "MIC", "setting": "[2]; N315, read-out: MIC −TO", "result": 256, "unit": "µg/mL"},
      {"measurement": "Fold (−TO/+TO)", "setting": "[3]; 8 μg/ml of tomatidine", "result": "1-2 fold"},
      {"measurement": "MIC", "setting": "[3]; [17]", "result": "128 to 256", "unit": "µg/mL"},
      {"measurement": "MIC", "setting": "[3]; [18]", "result": 256, "unit": "µg/mL"},
      {"measurement": "MIC", "setting": "[3]; [19]", "result": 256, "unit": "µg/mL"},
      {"measurement": "Fold (−TO/+TO)", "setting": "[4]; 8 μg/ml of tomatidine", "result": 8, "unit": "fold"},
      {"measurement": "MIC", "setting": "[4]; [20]", "result": 0.5, "unit": "µg/mL"},
      {"measurement": "MIC", "setting": "[4]; Human (SSTI), read-out: MIC", "result": 4, "unit": "µg/mL"},
      {"measurement": "MIC", "setting": "[4]; [21]", "result": 4, "unit": "µg/mL"},
      {"measurement": "Fold (−TO/+TO)", "setting": "[5]; 8 μg/ml of tomatidine", "result": 8, "unit": "fold"},
      {"measurement": "MIC", "setting": "[5]; [20]", "result": 0.5, "unit": "µg/mL"},
      {"measurement": "MIC", "setting": "[5]; [22]", "result": 4, "unit": "µg/mL"},
      {"measurement": "MIC", "setting": "[5]; [21]", "result": 4, "unit": "µg/mL"}
    ]},
    {"smiles": "NC[C@H]1O[C@H](O[C@H]2[C@H](O)[C@@H](O[C@H]3O[C@H](CO)[C@@H](O)[C@H](N)[C@H]3O)[C@H](N)C[C@@H]2N)[C@H](N)C[C@@H]1O", "note": "[Tobramycin, tobramycin]", "values": [
      {"measurement": "Fold (−TO/+TO)", "setting": "[6]; S. haemolyticus sh032, 8 μg/ml of tomatidine", "result": 16, "unit": "fold"},
      {"measurement": "MIC", "setting": "[6]; SH032, read-out: MIC +TO", "result": 2, "unit": "µg/mL"},
      {"measurement": "MIC", "setting": "[6]; SH032, read-out: MIC −TO", "result": 32, "unit": "µg/mL"},
      {"measurement": "Fold (−TO/+TO)", "setting": "[1]; Mu50, 8 μg/ml of tomatidine", "result": 8, "unit": "fold"},
      {"measurement": "MIC", "setting": "[1]; [14]", "result": 128, "unit": "µg/mL"},
      {"measurement": "MIC", "setting": "[1]; [15]", "result": 1020, "unit": "µg/mL"},
      {"measurement": "MIC", "setting": "[1]; [16]", "result": 1020, "unit": "µg/mL"},
      {"measurement": "Fold (−TO/+TO)", "setting": "[7]; S. hominis ssp008c, 8 μg/ml of tomatidine", "result": 4, "unit": "fold"},
      {"measurement": "MIC", "setting": "[7]; read-out: MIC +TO", "result": 8, "unit": "µg/mL"},
      {"measurement": "MIC", "setting": "[7]; read-out: MIC −TO", "result": 32, "unit": "µg/mL"},
      {"measurement": "Fold (−TO/+TO)", "setting": "[8]; S. epidermidis ATCC 35984, 8 μg/ml of tomatidine", "result": 8, "unit": "fold"},
      {"measurement": "MIC", "setting": "[8]; ATCC35984, read-out: MIC +TO", "result": 2, "unit": "µg/mL"},
      {"measurement": "MIC", "setting": "[8]; ATCC35984, read-out: MIC −TO", "result": 16, "unit": "µg/mL"},
      {"measurement": "Fold (−TO/+TO)", "setting": "[9]; S. haemolyticus sh022, 8 μg/ml of tomatidine", "result": 8, "unit": "fold"},
      {"measurement": "MIC", "setting": "[9]; SH022, read-out: MIC +TO", "result": 4, "unit": "µg/mL"},
      {"measurement": "MIC", "setting": "[9]; SH022, read-out: MIC −TO", "result": 32, "unit": "µg/mL"},
      {"measurement": "Fold (−TO/+TO)", "setting": "[2]", "result": "2-4 fold"},
      {"measurement": "MIC", "setting": "[2]; MRSA", "result": 512, "unit": "µg/mL"},
      {"measurement": "MIC", "setting": "[2]; N315, read-out: MIC +TO", "result": "128 to 256", "unit": "µg/mL"},
      {"measurement": "MIC", "setting": "[2]; N315, read-out: MIC −TO", "result": 512, "unit": "µg/mL"},
      {"measurement": "average increase of antibacterial activity", "setting": "[10]", "result": "8±3", "unit": "fold"},
      {"measurement": "Fold (−TO/+TO)", "setting": "[11]; S. hominis sho23, 8 μg/ml of tomatidine", "result": 4, "unit": "fold"},
      {"measurement": "MIC", "setting": "[11]; SHO23, read-out: MIC +TO", "result": 1, "unit": "µg/mL"},
      {"measurement": "MIC", "setting": "[11]; SHO23, read-out: MIC −TO", "result": 4, "unit": "µg/mL"},
      {"measurement": "MIC", "setting": "[12]", "result": "> 32", "unit": "µg/mL"},
      {"measurement": "Fold (−TO/+TO)", "setting": "[3]; 8 μg/ml of tomatidine", "result": "4-8 fold"},
      {"measurement": "MIC", "setting": "[3]; [17]", "result": "64 to 256", "unit": "µg/mL"},
      {"measurement": "MIC", "setting": "[3]; [18]", "result": "512 to 1020", "unit": "µg/mL"},
      {"measurement": "MIC", "setting": "[3]; [19]", "result": "512 to 1020", "unit": "µg/mL"},
      {"measurement": "Fold (−TO/+TO)", "setting": "[13]; S. epidermidis ATCC 12228, 8 μg/ml of tomatidine", "result": 2, "unit": "fold"},
      {"measurement": "MIC", "setting": "[13]; ATCC12228, read-out: MIC +TO", "result": 0.06, "unit": "µg/mL"},
      {"measurement": "MIC", "setting": "[13]; ATCC12228, read-out: MIC −TO", "result": 0.12, "unit": "µg/mL"},
      {"measurement": "Fold (−TO/+TO)", "setting": "[4]; 8 μg/ml of tomatidine", "result": "8-16 fold"},
      {"measurement": "MIC", "setting": "[4]; [20]", "result": 0.06, "unit": "µg/mL"},
      {"measurement": "MIC", "setting": "[4]; Human (SSTI), read-out: MIC", "result": "0.5 to 1", "unit": "µg/mL"},
      {"measurement": "MIC", "setting": "[4]; [21]", "result": "0.5 to 1", "unit": "µg/mL"},
      {"measurement": "Fold (−TO/+TO)", "setting": "[5]; 8 μg/ml of tomatidine", "result": "4-16 fold"},
      {"measurement": "MIC", "setting": "[5]; [20]", "result": "0.06 to 0.12", "unit": "µg/mL"},
      {"measurement": "MIC", "setting": "[5]; [22]", "result": "0.5 to 1", "unit": "µg/mL"},
      {"measurement": "MIC", "setting": "[5]; [21]", "result": "0.5 to 1", "unit": "µg/mL"}
    ]}
  ]
}
